Reference: PMC12196476, “New Nitrogen-, Oxygen-, and Sulfur-Containing Heterocyclic Compounds as Anti-Colon Cancer Agents: Synthesis, Multitargeted Evaluations, Molecular Docking Simulations and ADMET Predictions” (Pharmaceuticals, 2025)

Molecular target: recombinant human LDHA protein (Homo sapiens, UniProt P00338)
Assay: In vitro LDHA inhibitory assay (NADH consumption)
Type: biochemical

inhibition at 100 µg/mL (100 µg/mL, three replicates, read-out: Mean Inhibition Percent ± SD, LDHA): 85.9 ± 2.97% | IC50 (three independent experiments, read-out: Mean IC50 µM ± SD, LDHA): 149 ± 7.93 µM
Structure (SMILES): COc1cc(/C=N/c2ncnc3sc4c(c23)CCCC4)cc(OC)c1OC [Compound 3d, (E)-N-(5,6,7,8-Tetrahydrobenzo[4,5]thieno[2,3-d]pyrimidin-4-yl)-1-(3,4,5-trimethoxyphenyl)methanimine]
